# The source made the active and inactive calls. The rule behind the calls is not given here.
# Legend:
# PC-3 [1] = assay: Cytotoxicity against PC3 cells by SRB assay after 48 hrs; assay type: functional; conditions: Homo sapiens, PC-3, 48 h
# [2] = Ratio of K(app) for [A-T] to [G-C]
# PC-3 [3] = assay: Reduction in PC3 cell viability after 48 hrs by FDA flow cytometer assay; assay type: functional, cell-based; conditions: Homo sapiens
# PC-3 [4] = assay: Induction of apoptosis in PC3 measured as percentage of late apoptotic cells by biparametric PI/Annexin V assay at 2.6 uM after 48 hrs; assay type: functional, Homo sapiens
# PC-3 [5] = assay: Induction of apoptosis in PC3 measured as percentage of late apoptotic cells by biparametric PI/Annexin V assay at 2.6 uM after 24 hrs; assay type: functional, Homo sapiens
# PC-3 [6] = assay: Induction of apoptosis in PC3 measured as percentage of late apoptotic cells by biparametric PI/Annexin V assay at 2.6 uM after 8 hrs; assay type: functional, Homo sapiens
# PC-3 [7] = assay: Induction of apoptosis in PC3 measured as percentage of late apoptotic cells by biparametric PI/Annexin V assay at 2.6 uM after 4 hrs; assay type: functional, Homo sapiens
# PC-3 [8] = assay: Induction of apoptosis in PC3 measured as percentage of early apoptotic cells by biparametric PI/Annexin V assay at 2.6 uM after 48 hrs; assay type: functional, Homo sapiens
# PC-3 [9] = assay: Induction of apoptosis in PC3 cells measured as percentage of living cells by biparametric PI/Annexin V assay at 2.6 uM after 4 hrs; assay type: functional, Homo sapiens
# PC-3 [10] = assay: Induction of apoptosis in PC3 cells measured as percentage of living cells by biparametric PI/Annexin V assay at 2.6 uM after 8 hrs; assay type: functional, Homo sapiens
# PC-3 [11] = assay: Induction of apoptosis in PC3 cells measured as percentage of living cells by biparametric PI/Annexin V assay at 2.6 uM after 24 hrs; assay type: functional, Homo sapiens
# PC-3 [12] = assay: Induction of apoptosis in PC3 cells measured as percentage of living cells by biparametric PI/Annexin V assay at 2.6 uM after 48 hrs; assay type: functional, Homo sapiens
# PC-3 [13] = assay: Induction of apoptosis in PC3 measured as percentage of necrotic cells by biparametric PI/Annexin V assay at 2.6 uM after 4 hrs; assay type: functional, Homo sapiens
# PC-3 [14] = assay: Induction of apoptosis in PC3 measured as percentage of necrotic cells by biparametric PI/Annexin V assay at 2.6 uM after 8 hrs; assay type: functional, Homo sapiens
# PC-3 [15] = assay: Induction of apoptosis in PC3 measured as percentage of necrotic cells by biparametric PI/Annexin V assay at 2.6 uM after 24 hrs; assay type: functional, Homo sapiens
# PC-3 [16] = assay: Induction of apoptosis in PC3 measured as percentage of necrotic cells by biparametric PI/Annexin V assay at 2.6 uM after 48 hrs; assay type: functional, Homo sapiens
# PC-3 [17] = assay: Induction of apoptosis in PC3 measured as percentage of early apoptotic cells by biparametric PI/Annexin V assay at 2.6 uM after 4 hrs; assay type: functional, Homo sapiens
# PC-3 [18] = assay: Induction of apoptosis in PC3 measured as percentage of early apoptotic cells by biparametric PI/Annexin V assay at 2.6 uM after 8 hrs; assay type: functional, Homo sapiens
# PC-3 [19] = assay: Induction of apoptosis in PC3 measured as percentage of early apoptotic cells by biparametric PI/Annexin V assay at 2.6 uM after 24 hrs; assay type: functional, Homo sapiens
# PC-3 [20] = assay: Induction of early apoptosis in PC3 cells by DNA fragmentation assay; assay type: functional, cell-based; conditions: Homo sapiens
# PC-3 [21] = assay: Induction of apoptosis in PC3 cells measured as percentage of living cells by biparametric PI/Annexin V assay at 1.6 uM after 4 hrs; assay type: functional, Homo sapiens
# PC-3 [22] = assay: Induction of necrosis in PC3 cells by DNA fragmentation assay; assay type: functional, cell-based; conditions: Homo sapiens
# PC-3 [23] = assay: Induction of apoptosis in PC3 cells measured as percentage of living cells by biparametric PI/Annexin V assay at 1.6 uM after 8 hrs; assay type: functional, Homo sapiens
# PC-3 [24] = assay: Induction of apoptosis in PC3 cells measured as percentage of living cells by biparametric PI/Annexin V assay at 1.6 uM after 24 hrs; assay type: functional, Homo sapiens
# PC-3 [25] = assay: Induction of apoptosis in PC3 cells measured as percentage of living cells by biparametric PI/Annexin V assay at 1.6 uM after 48 hrs; assay type: functional, Homo sapiens
# PC-3 [26] = assay: Induction of apoptosis in PC3 measured as percentage of necrotic cells by biparametric PI/Annexin V assay at 1.6 uM after 4 hrs; assay type: functional, Homo sapiens
# PC-3 [27] = assay: Induction of apoptosis in PC3 measured as percentage of necrotic cells by biparametric PI/Annexin V assay at 1.6 uM after 8 hrs; assay type: functional, Homo sapiens
# PC-3 [28] = assay: Induction of apoptosis in PC3 measured as percentage of necrotic cells by biparametric PI/Annexin V assay at 1.6 uM after 24 hrs; assay type: functional, Homo sapiens
# PC-3 [29] = assay: Induction of apoptosis in PC3 measured as percentage of necrotic cells by biparametric PI/Annexin V assay at 1.6 uM after 48 hrs; assay type: functional, Homo sapiens
# PC-3 [30] = assay: Induction of apoptosis in PC3 measured as percentage of early apoptotic cells by biparametric PI/Annexin V assay at 1.6 uM after 4 hrs; assay type: functional, Homo sapiens
# PC-3 [31] = assay: Induction of apoptosis in PC3 measured as percentage of early apoptotic cells by biparametric PI/Annexin V assay at 1.6 uM after 8 hrs; assay type: functional, Homo sapiens
# PC-3 [32] = assay: Induction of apoptosis in PC3 measured as percentage of early apoptotic cells by biparametric PI/Annexin V assay at 1.6 uM after 24 hrs; assay type: functional, Homo sapiens
# PC-3 [33] = assay: Induction of apoptosis in PC3 measured as percentage of early apoptotic cells by biparametric PI/Annexin V assay at 1.6 uM after 48 hrs; assay type: functional, Homo sapiens
# PC-3 [34] = assay: Induction of apoptosis in PC3 measured as percentage of late apoptotic cells by biparametric PI/Annexin V assay at 1.6 uM after 4 hrs; assay type: functional, Homo sapiens
# PC-3 [35] = assay: Induction of apoptosis in PC3 measured as percentage of late apoptotic cells by biparametric PI/Annexin V assay at 1.6 uM after 8 hrs; assay type: functional, Homo sapiens
# PC-3 [36] = assay: Induction of apoptosis in PC3 measured as percentage of late apoptotic cells by biparametric PI/Annexin V assay at 1.6 uM after 24 hrs; assay type: functional, Homo sapiens
# PC-3 [37] = assay: Induction of apoptosis in PC3 measured as percentage of late apoptotic cells by biparametric PI/Annexin V assay at 1.6 uM after 48 hrs; assay type: functional, Homo sapiens
SMILES,GI50 (PC-3 [1]) [µM],TGI (PC-3 [1]) [µM],Selectivity ratio [2],LC50 (concentration for 50% net cell kill) (PC-3 [1]) [µM],other results
CN(C)CCN1C(=O)c2cccc3cc([N+](=O)[O-])cc(c23)C1=O [MITONAFIDE],0.15,3.8,,,
CN(C)CCn1c(=O)c2ccc(NCCCN(C)CCCN3C(=O)c4cccc5cc([N+](=O)[O-])cc(c45)C3=O)c3c(=O)c4ccccc4n(c1=O)c23.Cl,,,4.3,2.6,Activity (PC-3 [3]): Time-dependent effect; Activity (PC-3 [4]): 7.5%; Activity (PC-3 [5]): 6.3%; Activity (PC-3 [6]): 7.8%; Activity (PC-3 [7]): 3.5%; Activity (PC-3 [8]): 4%; Activity (PC-3 [9]): 67.7%; Activity (PC-3 [10]): 49%; Activity (PC-3 [11]): 31.5%; Activity (PC-3 [12]): 1.2%; Activity (PC-3 [13]): 16.3%; Activity (PC-3 [14]): 26.9%; Activity (PC-3 [15]): 28.6%; Activity (PC-3 [16]): 87.3%; Activity (PC-3 [17]): 12.5%; Activity (PC-3 [18]): 16.3%; Activity (PC-3 [19]): 33.6%; Activity (PC-3 [20]): Active
CN(C)CCNC(=O)c1ccc(NCCCN(C)CCCNc2ccc3c(=O)n(CCN(C)C)c(=O)n4c5ccccc5c(=O)c2c34)c2c(O)c3cc([N+](=O)[O-])ccc3nc12.Cl,0.007,0.16,1.9,1.6,Activity (PC-3 [3]): Time-dependent effect; Activity (PC-3 [21]): 66.5%; Activity (PC-3 [22]): Active; Activity (PC-3 [23]): 53%; Activity (PC-3 [24]): 37.5%; Activity (PC-3 [25]): 5%; Activity (PC-3 [26]): 28.6%; Activity (PC-3 [27]): 37.9%; Activity (PC-3 [28]): 44%; Activity (PC-3 [29]): 55.7%; Activity (PC-3 [30]): 1.9%; Activity (PC-3 [31]): 3.6%; Activity (PC-3 [32]): 2.9%; Activity (PC-3 [33]): 4.1%; Activity (PC-3 [34]): 3%; Activity (PC-3 [35]): 5.5%; Activity (PC-3 [36]): 15.6%; Activity (PC-3 [37]): 35.2%
COc1ccc2c(c1)c(=O)c1c(NCCCN(C)CCCN3C(=O)c4cccc5cc([N+](=O)[O-])cc(c45)C3=O)ccc3c(=O)n(CCN(C)C)c(=O)n2c31,0.083,0.5,4.8,9.3,
CN(C)CCNC(=O)c1ccc(NCCCN(C)CCCN2C(=O)c3cccc4cccc(c34)C2=O)c2c(O)c3cc([N+](=O)[O-])ccc3nc12,0.089,0.63,1.4,3,
CN(C)CCCn1c(=O)c2ccc(NCCCN(C)CCCN3C(=O)c4cccc5cccc(c45)C3=O)c3c(=O)c4ccccc4n(c1=O)c23,0.42,0.83,3.4,3.8,
COc1cc2c(=O)c3c(NCCCN(C)CCCN4C(=O)c5cccc6cc([N+](=O)[O-])cc(c56)C4=O)ccc4c(=O)n(CCN(C)C)c(=O)n(c2cc1OC)c43,0.017,0.34,1.6,4,
COc1ccc2c(c1)c(=O)c1c(NCCCN(C)CCCN3C(=O)c4cccc5cccc(c45)C3=O)ccc3c(=O)n(CCN(C)C)c(=O)n2c31,0.051,0.85,4.5,4,
CN(C)CCNC(=O)c1ccc(NCCCN(C)CCCNc2ccc3c(=O)n(CCN(C)C)c(=O)n4c5ccccc5c(=O)c2c34)c2c(O)c3ccccc3nc12,0.1,1,1.3,8.3,
CN(C)CCCNC(=O)c1ccc(NCCCN(C)CCCN2C(=O)c3cccc4cc([N+](=O)[O-])cc(c34)C2=O)c2c(O)c3ccccc3nc12,0.05,0.09,6.1,3.6,
CN(C)CCNC(=O)c1ccc(NCCCN(C)CCCN2C(=O)c3cccc4cccc(c34)C2=O)c2c(O)c3ccccc3nc12,0.52,2,4.1,5.4,
COc1cc2nc3c(C(=O)NCCN(C)C)ccc(NCCCN(C)CCCN4C(=O)c5cccc6cccc(c56)C4=O)c3c(O)c2cc1OC,0.15,3.8,1.3,> 50,
CN(C)CCCNC(=O)c1ccc(NCCCN(C)CCCNc2ccc3c(=O)n(CCCN(C)C)c(=O)n4c5ccccc5c(=O)c2c34)c2c(O)c3ccccc3nc12,0.25,0.6,14,2.5,
CN(C)CCNC(=O)c1ccc(NCCNCCNCCN2C(=O)c3cccc4cccc(c34)C2=O)c2c(O)c3cc([N+](=O)[O-])ccc3nc12,0.062,0.39,,2.5,
CN(C)CCn1c(=O)c2ccc(NCCCN(C)CCCN3C(=O)c4cccc5cccc(c45)C3=O)c3c(=O)c4ccccc4n(c1=O)c23,,,2.4,2.6,
CN(C)CCCn1c(=O)c2ccc(NCCCN(C)CCCN3C(=O)c4cccc5cc([N+](=O)[O-])cc(c45)C3=O)c3c(=O)c4ccccc4n(c1=O)c23,1.7,3.2,20,6.6,
CN(C)CCNC(=O)c1ccc(NCCCN(C)CCCN2C(=O)c3cccc4cc([N+](=O)[O-])cc(c34)C2=O)c2c(O)c3ccccc3nc12,0.6,1,7.1,4.4,
CN(C)CCNC(=O)c1ccc(NCCCN(C)CCCN2C(=O)c3cccc4cc([N+](=O)[O-])cc(c34)C2=O)c2c(O)c3cc([N+](=O)[O-])ccc3nc12,0.008,1.3,2.1,4.1,
CN(C)CCCNC(=O)c1ccc(NCCCN(C)CCCN2C(=O)c3cccc4cccc(c34)C2=O)c2c(O)c3ccccc3nc12,0.6,0.99,6.9,4.1,

# From ChEMBL document CHEMBL1138883, “Synthesis and biological evaluation of new asymmetrical bisintercalators as potential antitumor drugs” (2006)
